Test results published in ChEMBL document CHEMBL1201862, “PubChem BioAssay data set” (2004).
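Each compound was tested at five concentrations against cells in 96-well plates for 48 hours. Here, GI50 denotes the concentration required for 50% inhibition of growth.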 Activity calls are given as the source filed them. Cut-off read from the data, not from the text of the source: active = GI50 up to about 1.1 µM and inactive = higher.

Tests used:
Assay in all cases: DTP human tumour cell line panel, 48 h
HT-29 = test system: HT-29
HCT-116 = test system: HCT-116
NCI-H522 = test system: NCI-H522
A549 = test system: A549
NCI-H460 = test system: NCI-H460
HCC 2998 = test system: HCC 2998
KM12 = test system: KM12
UO-31 = test system: UO-31
U-251 = test system: U-251
MOLT-4 = test system: MOLT-4
SF-295 = test system: SF-295
UACC-257 = test system: UACC-257
HOP-92 = test system: HOP-92
A498 = test system: A498
OVCAR-3 = test system: OVCAR-3
LOX IMVI = test system: LOX IMVI
M14 = test system: M14
CCRF-CEM = test system: CCRF-CEM
SR = test system: SR

Measured: GI50

COc1ccc(C(=O)/C(=N/Nc2ccccc2)c2ccc(OC)cc2)cc1
inactive: HT-29 18.3 µM | HCT-116 > 100 µM | NCI-H522 80.4 µM | A549 > 100 µM | NCI-H460 > 100 µM | HCC 2998 > 100 µM | KM12 10.6 µM | UO-31 > 100 µM | U-251 > 100 µM | MOLT-4 9.66 µM | SF-295 > 100 µM | UACC-257 > 100 µM

COc1ccc(NC(=O)c2cc(OC)c(OC)c(OC)c2)cc1
inactive: HOP-92 > 100 µM | HT-29 36.8 µM | A498 43.6 µM | HCT-116 36.7 µM | OVCAR-3 39.1 µM | NCI-H522 30.2 µM | A549 62.1 µM | NCI-H460 35.9 µM | HCC 2998 42.2 µM | KM12 22.8 µM | UO-31 64.1 µM | U-251 39.6 µM | MOLT-4 34.3 µM | LOX IMVI 60.3 µM | SF-295 36.1 µM | UACC-257 42.8 µM | M14 88.1 µM | CCRF-CEM 37.8 µM

CC(C)N1CN(C(C(=O)N[C@@H]2C(=O)N3C2SC(C)(C)C3C(=O)O)c2ccccc2)CSC1=S (stereo not given in full)
inactive: HOP-92 > 100 µM | HT-29 96.6 µM | A498 > 100 µM | HCT-116 > 100 µM | OVCAR-3 > 100 µM | NCI-H522 27.8 µM | NCI-H460 43.7 µM | KM12 > 100 µM | UO-31 > 100 µM | U-251 > 100 µM | MOLT-4 > 100 µM | LOX IMVI 83.9 µM | SF-295 > 100 µM | UACC-257 > 100 µM | M14 > 100 µM | CCRF-CEM > 100 µM

COc1ccc2n[se]nc2c1
inactive: HT-29 > 100 µM | NCI-H522 > 100 µM | A549 45.5 µM | HCC 2998 38.6 µM | KM12 56.4 µM | UO-31 59.3 µM | U-251 > 100 µM | MOLT-4 > 100 µM | LOX IMVI > 100 µM | SF-295 32 µM | UACC-257 54.6 µM | M14 > 100 µM | CCRF-CEM > 100 µM

O=C1CCCC1NC(=O)C(F)(F)F (stereo not given)
inactive: HOP-92 > 100 µM | HT-29 > 100 µM | A498 > 100 µM | HCT-116 > 100 µM | OVCAR-3 > 100 µM | NCI-H522 > 100 µM | A549 > 100 µM | NCI-H460 > 100 µM | KM12 > 100 µM | UO-31 > 100 µM | U-251 > 100 µM | MOLT-4 > 100 µM | SF-295 > 100 µM | UACC-257 > 100 µM | M14 > 100 µM | CCRF-CEM > 100 µM

O=[N+]([O-])C(/C=N/Nc1ccccc1)/C=N/Nc1ccccc1
inactive: HOP-92 > 100 µM | HT-29 > 100 µM | A498 > 100 µM | HCT-116 > 100 µM | OVCAR-3 > 100 µM | NCI-H522 > 100 µM | A549 > 100 µM | NCI-H460 > 100 µM | HCC 2998 > 100 µM | KM12 > 100 µM | UO-31 > 100 µM | U-251 > 100 µM | MOLT-4 > 100 µM | LOX IMVI > 100 µM | SF-295 > 100 µM | UACC-257 > 100 µM | M14 > 100 µM | CCRF-CEM > 100 µM

COc1ccc(C2C(Cl)C(=O)N2n2cnc3ccccc3c2=O)cc1OC (stereo not given)
inactive: HT-29 > 100 µM | HCT-116 53 µM | OVCAR-3 44.6 µM | NCI-H522 57.9 µM | A549 > 100 µM | SR 38.7 µM | NCI-H460 81.1 µM | HCC 2998 > 100 µM | KM12 > 100 µM | UO-31 22.3 µM | U-251 > 100 µM | MOLT-4 82.4 µM | LOX IMVI > 100 µM | SF-295 > 100 µM | UACC-257 32 µM | M14 > 100 µM | CCRF-CEM > 10 µM

C/C(O[Si](C(C)C)(C(C)C)C(C)C)=C(\C)C(=O)N(C)c1ccccc1Cl
inactive: HOP-92 > 100 µM | HT-29 > 100 µM | A498 > 100 µM | HCT-116 > 100 µM | OVCAR-3 > 100 µM | NCI-H522 73.8 µM | A549 > 100 µM | NCI-H460 > 100 µM | KM12 > 100 µM | UO-31 > 100 µM | U-251 > 100 µM | MOLT-4 > 100 µM | LOX IMVI > 100 µM | SF-295 > 100 µM | UACC-257 > 100 µM | M14 > 100 µM

Cc1cn(C2CC(N(O)C(N)=O)C(CO)O2)c(=O)[nH]c1=O (stereo not given)
inactive: HOP-92 > 100 µM | HT-29 > 100 µM | A498 > 100 µM | HCT-116 > 100 µM | OVCAR-3 > 100 µM | NCI-H522 > 100 µM | A549 > 100 µM | KM12 > 100 µM | UO-31 > 100 µM | U-251 > 100 µM | MOLT-4 > 100 µM | SF-295 > 100 µM | M14 > 100 µM

COc1cc2c(cc1OC)c1c(OC)c(OC)cc3c1c1c2sc(=S)n1CC3
inactive: HOP-92 > 100 µM | HT-29 50.2 µM | A498 > 100 µM | HCT-116 97.9 µM | OVCAR-3 55.5 µM | NCI-H522 17.4 µM | A549 > 100 µM | NCI-H460 42.7 µM | HCC 2998 53.1 µM | KM12 55.8 µM | UO-31 > 100 µM | U-251 66.5 µM | MOLT-4 30.7 µM | LOX IMVI 31.5 µM | SF-295 > 100 µM | UACC-257 > 100 µM | M14 18.4 µM | CCRF-CEM 24.5 µM

COc1ccc(/C=C2\CCC(C)(CN(C)C)C2=O)cc1OC (stereo not given)
inactive: HOP-92 > 100 µM | HT-29 > 100 µM | A498 > 100 µM | HCT-116 > 100 µM | OVCAR-3 > 100 µM | NCI-H522 > 100 µM | A549 > 100 µM | NCI-H460 > 100 µM | HCC 2998 > 100 µM | KM12 > 100 µM | UO-31 > 100 µM | U-251 > 100 µM | MOLT-4 > 100 µM | LOX IMVI > 100 µM | SF-295 > 100 µM | UACC-257 > 100 µM | M14 > 100 µM | CCRF-CEM > 100 µM

CC(=O)Oc1cc2c(cc1OC(C)=O)C1(C)CCC2(C)c2cc(OC(C)=O)c(OC(C)=O)cc21
inactive: HOP-92 6.9 µM | HT-29 4.75 µM | OVCAR-3 10.2 µM | NCI-H522 2.24 µM | A549 34 µM | NCI-H460 20.8 µM | HCC 2998 25.1 µM | KM12 11.6 µM | UO-31 23.4 µM | MOLT-4 8.2 µM | LOX IMVI 12.6 µM | SF-295 24.5 µM | UACC-257 11.3 µM | M14 18.3 µM | CCRF-CEM 2.87 µM
